One assay has as its target T1, HER4 (Homo sapiens, UniProt Q15303).
T1 construct: purchased Invitrogen (SelectScreen service)
In words: Invitrogen SelectScreen biochemical assay. From the text:
(§1) In order to better understand CHMFL-EGFR-26's selectivity, we then tested it in DiscoveRx's KinomeScan™ assay. […] Given the fact that KinomeScan™ is a binding assay and sometimes cannot truly reflect the compound inhibitory activity, we then used Invitrogen SelectScreen® assay to test these potential off-targets (Supplementary Table 2). […] This was not surprising because EGFR, JAK3, HER2, HER4 and TEC family kinases (BTK, BLK and BMX) all share a similar cysteine residue at the identical position analogous to Cys 797 in EGFR in the hinge binding area.
(§2) www.impactjournals.com/oncotarget/ Oncotarget, Supplementary Materials 2017
(§3) KinomeScan Profiling by invitrogen SelectScreen® assay
(§4) (1 picture or pasted object on this page, not shown here)

The target in another assay is T2, MEK1 (Homo sapiens, UniProt Q02750).
T2 construct: purchased Invitrogen (SelectScreen service)
T2 sequence (Q02750 whole entry): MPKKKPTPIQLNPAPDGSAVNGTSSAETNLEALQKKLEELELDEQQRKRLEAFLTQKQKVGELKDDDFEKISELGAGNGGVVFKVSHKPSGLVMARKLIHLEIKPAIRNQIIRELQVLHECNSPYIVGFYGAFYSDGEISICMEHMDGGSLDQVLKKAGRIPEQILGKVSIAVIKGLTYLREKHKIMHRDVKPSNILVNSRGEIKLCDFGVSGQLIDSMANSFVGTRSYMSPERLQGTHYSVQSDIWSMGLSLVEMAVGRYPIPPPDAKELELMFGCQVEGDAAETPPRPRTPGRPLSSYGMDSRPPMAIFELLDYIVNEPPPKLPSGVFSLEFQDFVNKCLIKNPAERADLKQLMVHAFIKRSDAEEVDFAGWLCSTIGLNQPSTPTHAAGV
Kind of assay: Invitrogen SelectScreen biochemical assay.
Source text: as §1, §2, §3, §4

In another assay the target is T3, BLK (Homo sapiens, UniProt P51451).
T3 construct: purchased Invitrogen (SelectScreen service)
T3 sequence (P51451 whole entry): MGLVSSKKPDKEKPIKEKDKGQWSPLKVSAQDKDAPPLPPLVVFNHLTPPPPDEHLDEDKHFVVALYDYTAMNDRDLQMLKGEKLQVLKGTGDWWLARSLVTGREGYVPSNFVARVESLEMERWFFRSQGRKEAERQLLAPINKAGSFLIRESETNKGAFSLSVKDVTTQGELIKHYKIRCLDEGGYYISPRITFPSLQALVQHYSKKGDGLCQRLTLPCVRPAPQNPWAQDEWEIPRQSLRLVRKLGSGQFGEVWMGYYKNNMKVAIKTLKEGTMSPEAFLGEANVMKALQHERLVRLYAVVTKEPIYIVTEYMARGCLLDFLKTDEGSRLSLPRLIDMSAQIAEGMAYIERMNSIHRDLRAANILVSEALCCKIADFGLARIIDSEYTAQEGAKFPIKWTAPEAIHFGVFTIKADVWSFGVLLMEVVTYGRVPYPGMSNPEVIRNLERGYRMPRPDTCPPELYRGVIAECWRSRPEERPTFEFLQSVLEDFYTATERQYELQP
Kind of assay: Invitrogen SelectScreen biochemical assay.
Source text: as §1, §2, §3, §4

The next assay concerns the target T4, JAK3 (Homo sapiens, UniProt P52333).
T4 construct: purchased Invitrogen (SelectScreen service)
In words: Invitrogen SelectScreen biochemical assay.
Source text: as §1, §2, §3, §4

A further assay has as its target T5, HER2 (Homo sapiens, UniProt P04626).
T5 construct: purchased Invitrogen (SelectScreen service)
Kind of assay: Invitrogen SelectScreen biochemical assay.
Source text: as §1, §2, §3, §4

The next assay deals with T6, BTK (Homo sapiens, UniProt Q06187).
T6 construct: purchased Invitrogen (SelectScreen service)
T6 sequence (Q06187 whole entry): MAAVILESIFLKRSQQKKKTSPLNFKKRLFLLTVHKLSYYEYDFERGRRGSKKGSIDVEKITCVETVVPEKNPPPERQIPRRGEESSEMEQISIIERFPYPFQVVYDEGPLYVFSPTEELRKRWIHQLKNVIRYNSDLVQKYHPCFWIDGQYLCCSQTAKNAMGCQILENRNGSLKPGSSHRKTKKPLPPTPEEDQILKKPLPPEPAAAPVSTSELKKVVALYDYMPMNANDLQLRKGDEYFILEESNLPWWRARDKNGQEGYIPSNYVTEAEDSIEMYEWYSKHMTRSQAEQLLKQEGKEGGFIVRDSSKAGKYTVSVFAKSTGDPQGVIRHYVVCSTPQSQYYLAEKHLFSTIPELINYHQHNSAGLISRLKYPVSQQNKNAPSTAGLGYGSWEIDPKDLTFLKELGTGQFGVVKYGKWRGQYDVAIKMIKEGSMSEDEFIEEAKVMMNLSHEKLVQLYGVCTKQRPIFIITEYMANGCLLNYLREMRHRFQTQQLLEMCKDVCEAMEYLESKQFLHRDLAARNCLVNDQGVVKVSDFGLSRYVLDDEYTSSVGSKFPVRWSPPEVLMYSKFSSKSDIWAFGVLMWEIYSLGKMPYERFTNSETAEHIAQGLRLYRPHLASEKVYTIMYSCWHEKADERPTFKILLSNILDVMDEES
In words: Invitrogen SelectScreen biochemical assay.
Source text: as §1, §2, §3, §4

The next assay has as its target T7, KIT(L576P) (Homo sapiens, UniProt P10721, L576P).
T7 construct: purchased DiscoveRx KINOMEscan
Kind of assay: KinomeScan. The format is binding. The note with it: read-out: % control.

The target in assay [1] is T8, JAK1(JH1domain-catalytic) (Homo sapiens, UniProt P23458).
T8 construct: JAK1(JH1domain-catalytic); purchased DiscoveRx KINOMEscan
T8 sequence (P23458 875-1154 limits assumed): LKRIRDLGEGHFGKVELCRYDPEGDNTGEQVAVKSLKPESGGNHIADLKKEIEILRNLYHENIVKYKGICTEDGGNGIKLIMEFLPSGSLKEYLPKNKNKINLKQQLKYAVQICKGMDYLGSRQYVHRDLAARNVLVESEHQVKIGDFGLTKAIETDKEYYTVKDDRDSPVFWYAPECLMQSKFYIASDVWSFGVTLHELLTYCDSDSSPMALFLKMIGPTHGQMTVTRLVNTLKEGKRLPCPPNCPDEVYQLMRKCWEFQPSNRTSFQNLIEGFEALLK
In words: KinomeScan. The format is binding. The note with it: read-out: % control.

Assay [2] addresses T9, ABL1(F317L)-phosphorylated (Homo sapiens, UniProt P00519, F317L).
T9 construct: purchased DiscoveRx KINOMEscan
Kind of assay: KinomeScan. The note with it: read-out: % control. The format is binding.

A further assay deals with T10, YANK1 (Homo sapiens, UniProt Q8WU08).
T10 construct: purchased DiscoveRx KINOMEscan
T10 sequence (Q8WU08 whole entry): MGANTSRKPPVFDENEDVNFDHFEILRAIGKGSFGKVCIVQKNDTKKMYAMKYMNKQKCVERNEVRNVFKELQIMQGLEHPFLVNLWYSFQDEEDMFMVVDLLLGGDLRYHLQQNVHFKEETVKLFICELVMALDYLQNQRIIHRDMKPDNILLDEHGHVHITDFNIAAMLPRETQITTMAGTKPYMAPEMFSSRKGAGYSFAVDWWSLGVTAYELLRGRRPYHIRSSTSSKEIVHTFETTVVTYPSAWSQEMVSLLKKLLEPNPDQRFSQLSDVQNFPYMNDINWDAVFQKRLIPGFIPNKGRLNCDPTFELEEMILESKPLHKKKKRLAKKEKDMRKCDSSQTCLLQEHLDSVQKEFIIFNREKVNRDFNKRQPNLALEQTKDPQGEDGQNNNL
Kind of assay: KinomeScan. The format is binding. The note with it: read-out: % control.

A word on the IC50: it is the concentration needed to halve the response being measured. A low value points to higher potency.

T1 sequence (Q15303 26-1308): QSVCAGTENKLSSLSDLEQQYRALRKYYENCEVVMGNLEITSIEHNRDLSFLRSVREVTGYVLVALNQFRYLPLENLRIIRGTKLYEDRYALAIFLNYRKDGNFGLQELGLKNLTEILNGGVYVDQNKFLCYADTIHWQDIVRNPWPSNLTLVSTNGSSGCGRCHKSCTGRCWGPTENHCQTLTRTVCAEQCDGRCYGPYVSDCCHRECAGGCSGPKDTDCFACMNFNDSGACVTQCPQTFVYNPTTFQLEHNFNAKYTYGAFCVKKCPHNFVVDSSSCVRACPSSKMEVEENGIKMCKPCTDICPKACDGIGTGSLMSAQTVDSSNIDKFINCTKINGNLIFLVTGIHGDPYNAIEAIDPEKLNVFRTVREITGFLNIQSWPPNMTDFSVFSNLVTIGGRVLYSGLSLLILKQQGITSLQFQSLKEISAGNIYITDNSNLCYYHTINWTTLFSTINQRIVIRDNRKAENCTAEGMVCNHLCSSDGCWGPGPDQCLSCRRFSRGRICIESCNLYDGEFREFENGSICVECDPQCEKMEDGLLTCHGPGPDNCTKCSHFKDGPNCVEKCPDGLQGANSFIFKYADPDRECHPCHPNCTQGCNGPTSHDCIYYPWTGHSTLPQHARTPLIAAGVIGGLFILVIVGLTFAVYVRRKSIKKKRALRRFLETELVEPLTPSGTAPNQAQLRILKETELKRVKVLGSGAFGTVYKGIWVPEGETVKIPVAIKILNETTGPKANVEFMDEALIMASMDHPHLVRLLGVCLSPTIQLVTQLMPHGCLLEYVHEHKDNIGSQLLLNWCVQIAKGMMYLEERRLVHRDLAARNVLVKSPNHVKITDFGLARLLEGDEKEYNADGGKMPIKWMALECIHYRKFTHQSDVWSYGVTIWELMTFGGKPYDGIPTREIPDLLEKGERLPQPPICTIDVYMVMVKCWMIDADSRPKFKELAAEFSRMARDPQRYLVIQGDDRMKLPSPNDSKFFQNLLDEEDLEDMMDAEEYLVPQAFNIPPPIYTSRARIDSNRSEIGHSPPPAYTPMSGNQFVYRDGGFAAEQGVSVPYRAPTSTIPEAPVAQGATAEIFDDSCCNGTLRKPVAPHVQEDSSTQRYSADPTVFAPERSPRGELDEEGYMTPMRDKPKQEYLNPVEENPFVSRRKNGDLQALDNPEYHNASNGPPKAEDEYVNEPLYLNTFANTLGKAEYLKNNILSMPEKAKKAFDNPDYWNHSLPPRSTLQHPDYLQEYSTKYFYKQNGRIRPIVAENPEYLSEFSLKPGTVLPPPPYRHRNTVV
T9 sequence (P00519 whole entry F317L): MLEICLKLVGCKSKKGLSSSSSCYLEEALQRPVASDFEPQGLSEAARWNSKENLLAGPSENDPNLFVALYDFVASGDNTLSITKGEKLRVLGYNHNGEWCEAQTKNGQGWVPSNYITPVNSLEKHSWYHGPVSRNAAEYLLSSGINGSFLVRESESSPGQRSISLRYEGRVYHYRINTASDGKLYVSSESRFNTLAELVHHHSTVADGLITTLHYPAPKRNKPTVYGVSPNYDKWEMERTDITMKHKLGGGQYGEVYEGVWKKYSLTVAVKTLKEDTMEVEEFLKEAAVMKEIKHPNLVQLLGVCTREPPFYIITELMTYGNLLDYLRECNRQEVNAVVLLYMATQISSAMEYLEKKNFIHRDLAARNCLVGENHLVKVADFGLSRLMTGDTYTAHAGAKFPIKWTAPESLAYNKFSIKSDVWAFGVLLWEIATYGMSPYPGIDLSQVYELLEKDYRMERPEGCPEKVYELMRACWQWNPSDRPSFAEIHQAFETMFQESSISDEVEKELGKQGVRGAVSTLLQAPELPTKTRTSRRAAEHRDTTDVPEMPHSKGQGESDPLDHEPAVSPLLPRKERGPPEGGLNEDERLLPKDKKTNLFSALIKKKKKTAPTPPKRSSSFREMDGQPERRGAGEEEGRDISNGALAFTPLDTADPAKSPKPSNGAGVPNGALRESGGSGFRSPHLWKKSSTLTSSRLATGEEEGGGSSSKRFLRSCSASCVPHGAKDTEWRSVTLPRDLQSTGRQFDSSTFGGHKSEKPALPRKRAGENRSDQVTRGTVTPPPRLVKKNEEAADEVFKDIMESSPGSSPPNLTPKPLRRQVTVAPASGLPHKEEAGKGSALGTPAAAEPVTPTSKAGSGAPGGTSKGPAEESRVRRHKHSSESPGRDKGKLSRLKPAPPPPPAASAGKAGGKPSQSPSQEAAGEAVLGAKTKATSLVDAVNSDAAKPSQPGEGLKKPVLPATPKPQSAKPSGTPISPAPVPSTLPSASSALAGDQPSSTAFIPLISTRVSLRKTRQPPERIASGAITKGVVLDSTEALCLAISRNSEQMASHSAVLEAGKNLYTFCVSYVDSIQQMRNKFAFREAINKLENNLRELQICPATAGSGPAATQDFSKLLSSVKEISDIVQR

With `C=CC(=O)N1CCC[C@@H](n2nc(-c3ccc(OCc4cccc(C)n4)c(Cl)c3)c3c(N)ncnc32)C1` [CHMFL-EGFR-26], the IC50 was 5.39 nM at HER4; 131 nM against MEK1; 3.9 nM on BLK; 30.6 nM against JAK3; 15.9 nM against HER2; 16.3 nM against BTK. Further, the remaining binding at 1 µM on KIT(L576P) was determined as 91%; in [1], 91%; in assay [2], 95%; at YANK1, 3.6%.

Values taken from paper PMC5392334, “Discovery and characterization of a novel irreversible EGFR mutants selective and potent kinase inhibitor CHMFL-EGFR-26 with a distinct binding mode” (Oncotarget, 2017).
